SMILES strings stand for the structures. Read-outs that look alike come from different tables or passages of the source.

One assay has as its system SW480 cells. The assay can be described thus: Antiproliferative activity (SRB, 0-8 days). Format: cell-based. The following applies: Homo sapiens, read-out: Cell Viability (%) ± SE; for viability at 0.625 µM: SW480, 0.625 µM; for viability at 10 µM: SW480, 10 µM. On the procedure:
(§1) For this experiment, the same colorimetric method (SRB) from the evaluation of cell viability was used, although with some modifications. Initially, 2500 cells per well were seeded in 96-well culture plates, and a 24 h adherence period was performed at 37 °C in a 5% CO2 atmosphere. […] For this assay, incubation periods of 0, 2, 4, 6, and 8 days were used, and the fixation, staining, and reading conditions were the same as those previously described for the cytotoxicity assay.

The test system of the next assay is SW620 cells. The assay can be described thus: Antiproliferative activity (SRB, 0-8 days). Format: cell-based, human. The following applies: for viability at 1.25 µM / viability at 20 µM: Homo sapiens, read-out: Cell Viability (%) ± SE; for viability at 1.25 µM: SW620, 1.25 µM; for viability at 20 µM: SW620, 20 µM. Here is the method:
as §1

Setting [1] is: SW-620, 48 h, 2 days after plating.
[2] abbreviates: SW-620, 96 h, 4 days after plating.
The mark [3] stands for this setting: SW-620, 144 h, 6 days after plating.
Setting [4] is: SW-620, 192 h, 8 days after plating.

In the case of `COc1cc(/C=C/C(=O)c2ccc(OCCCCCn3cc(Cn4cc(F)c(=O)[nH]c4=O)nn3)cc2)ccc1O` [Compound 6d, (E)-5-fluoro-1-((1-(5-(4-(3-(4-hydroxy-3-methoxyphenyl)acryloyl)phenoxy)pentyl)-1H-1,2,3-triazol-4-yl)methyl)pyrimidine-2,4(1H,3H)-dione], the viability at 0.625 µM in the assay with SW480 cells (48 h, 2 days after plating) was found to be 90.1 ± 1.45%; in the assay on SW480 cells (96 h, 4 days after plating), 55.5 ± 2.21%; with SW480 cells (144 h, 6 days after plating) it was 46.36 ± 0.18%; in the assay with SW480 cells (192 h, 8 days after plating), 32.3 ± 0.77%. The viability at 10 µM was determined as 7.35 ± 1.45% in the assay on SW480 cells (48 h, 2 days after plating); 0.75 ± 0.2% with SW480 cells (96 h, 4 days after plating); 0.68 ± 0.14% in the assay with SW480 cells (144 h, 6 days after plating); 0% with SW480 cells (192 h, 8 days after plating). In addition, the viability at 1.25 µM in the assay with SW620 cells (setting [1]) is 91 ± 2.85%; with SW620 cells (setting [2]), 85.2 ± 3.23%; with SW620 cells (setting [3]), 67.3 ± 2.32%; in the assay with SW620 cells (setting [4]), 54.4 ± 2.76%. Besides, the viability at 20 µM was determined as 42.5 ± 4.57% in the assay with SW620 cells (setting [1]), 7.1 ± 0.95% in the assay on SW620 cells (setting [2]), 0% in the assay on SW620 cells (setting [3]) and 0% with SW620 cells (setting [4]). The “inhibition percentages (decrease in cell viability)” value with SW620 cells (SW620, from 5 µM, day 2) is reported as “higher than 30%”.

The term viability denotes a read-out of living cells in per cent, often relative to untreated cells.

The values above are taken from publication PMC10144058, “New Hybrid Scaffolds Based on 5-FU/Curcumin: Synthesis, Cytotoxic, Antiproliferative and Pro-Apoptotic Effect” (Pharmaceutics, 2023).
